What was measured:
[1] = test system: hTERT/shp16 transduced ER^pos HBEC; assay: qRT-PCR of ESR and PGR after 7 days exposure to inhibitors; format: cell-based, human; details: RepSox alone versus combination with SB431542
Procedure: FIG. 12: PCR analysis of human estrogen receptor signaling. (a) Using a commercially available PCR array containing 84 genes involved in ER activation and its response, qRT-PCR was conducted with RNA samples of ER^pos HBEC with or without TGFβ[…]. Among them, 20 genes (some of which are labeled in the plot) were highly expressed in the presence of TGFβ[…]. […] The black line indicates no difference between samples, while the pink lines indicate a two-fold change in gene expression. Two biological replicates were run I qRT-PCT with duplicates of each. […] Bars indicate the fold difference of the relative gene expression and error bars represent SD of triplicates in qPCR.

CD166^high-derived cells = assay: Long-term growth / population doublings on passaging; format: cell-based, human; details: in the absence of RepSox (SB431542 alone)
Text: For growth experiments cultures initially seeded at 6400 cells/cm^2 and grown for fifteen days in primary culture in TGFβR2i or with SB431542 alone. Next, the cultures were trypsinized and seeded at 4000 cells/cm^2 in triplicate cultures, and subsequently passaged at the same density before the cultures reached confluency. Parallel cultures were stained to assess Ks20.8, ER and PR expression status. The number of cells was quantified manually using a counting chamber. […] Population doublings were calculated as n=3.32(log UCY—log 1)+X, where n=population doubling, UCY=cell yield, 1=inoculum number, X=population doubling rate of inoculum. To determine whether continuous TGFβR2i culture was needed to sustain ER and K8 expression, cells in the sixth passage were switched to FAD2 and the number of ER^pos cells (n=3×100) was compared to parallel TGFβR2i cultures at day three and five.

CD166^high cells = assay: Induction of ER, K8 and luminal genes by TGF-β signaling inhibitors (qPCR, Western blotting, staining); format: cell-based, human
Procedure: To test the specificity of the effect of TGFβ[…], in some experiments SB431542 alone or the double concentration of SB431542 was used instead of TGFβ[…] or RepSox was replaced by another TGF-β type I receptor activin receptor-like kinase ALKS inhibitor, SD208 (1 μM, Tocris Bioscience). The vehicle, dimethyl sulfoxide (Sigma Aldrich), was included in all experiments added in appropriate concentrations for control cultures. Gentamycin (50 μg/ml, Biological Industries) was added to the cultures for one week after sorting, otherwise antibiotics were not included. […] In order to quantify cDNA concentration represented by cycle threshold (Ct) values, Cts were determined at the initial period of exponential amplification in triplicates and the different PCR runs were adjusted by inter-run calibrators (Bio-Rad CFX manager 3.0). Each gene expression level was to the mean of four reference gene expressions (GAPDH, HPRT1, TBP, and TFRC). The qRT-PCR data were then visualized as a heatmap using the statistical programi R or as a bar graph using the values calculated by the 2^-ΔΔCt method (Livak et al., 2001). […] Whole cell lysates were prepared for extraction by incubation in RIPA lysis buffer for 30 min at 4° C. with protease inhibitor cocktail (P8340, Sigma) and phosphatase inhibitor cocktail (Sigma, P5726). Protein were separated by a 4 12% Novex® Bis-Tris pre-cast polyacrylamide gradient gel (Life technologies) and transferred to a PVDF membrane using iBlot® dry blotting system (Life technologies). Molecular weight was indicated by using a pre-stained protein ladder (SM0671, Fermentas). […] Secondary antibodies conjugated with horseradish peroxidase (DAKO) were incubated for one hour at room temperature. Western blots were visualized using enhanced chemiluminescence solution ([…] 32106, Thermo Scientific) and a chemi-luminescence imager (Amersham Image 600, GE Healthcare life sciences).

ER^pos cells [2] = assay: qRT-PCR of PGR and GREB1 after estrogen; format: cell-based, human; details: long-term exposure to estrogen
luminal cells = assay: Screening assay for normal morphogenic behavior (co-culture on fibroblast feeder in BBMYAB); format: cell-based, human; details: E2 10^−8 M
Text: Within two weeks luminal cells grow up from single cells to form polarized structures, either comprising luminal cells only or luminal cells surrounded by a layer of myoepithelial cells, reminiscent of their organization in vivo.

ER^pos cells [3] = assay: Proliferative response to estrogen without EGF; format: cell-based, human; details: early passage cultures, 10^−8 M β-estradiol versus vehicle, four days
Procedure: To test the proliferative response to estrogen, ER^pos cells in TGFβR2i culture were seeded in second passage with 4000 cells/cm^2 in TGFβR2i with 25 μM RepSox and without EGF, supplemented with estrogen (10^−8 M, β-estradiol, E2758, Sigma-Aldrich) and cultured for up to 13 days with medium change every other day. A primary culture from another biopsy (P959) was cultured 27 days in the presence of estrogen and without EGF before splitting. The cells were passaged at 4000 cells/cm^2 in triplicate cultures with estrogen or vehicle (96% ethanol). At day four the cultures were trypsinized and quantified using a counting chamber.

ER^pos cells [4] = assay: PR protein staining after estrogen; format: cell-based, human; details: 10^−8 M β-estradiol, absence of EGF
Procedure: Cryostat sections, smears of sorted cells and monolayer cultures were prepared and stained by immunoperoxidase or immunofluorescence as previously described (Petersen et al. 1988, Villadsen et al. 2007, Rønnov-Jessen et al. 1992). Cellular smears for ER staining were fixed in 10% formalin for 10 min, followed by 5 min in ice-cold methanol:acetone (1:1), and incubated over night with anti-ER (Sp1, 1:10) at 4° C., followed by incubation for 30 min with Alexa Fluor 568 goat-anti rabbit IgG (Invitrogen). […] Immunofluorescence and peroxidase stainings were evaluated, quantified and photographed using a laser-scanning microscope (LSM 510; Carl Zeiss Microlmaging, Inc.) and brightfield microscopes (Laborlux S or DM5500B, Leica), respectively. For quantification of ER, K8, K19 and p63, nuclei were counterstained with hematoxylin and counted in randomly selected fields using an ocular grid and given as the percentage of stained cells of a total of 1000 cells evaluated with a 25 times objective.
As an ultimate test for a physiologically relevant ER expression we decided to assess the effect of added cognate ligand, i. e. estrogen (β-estradiol). […] Early passage cultures were exposed to estrogen or vehicle, and after four days the cell number was quantified. […]

ER^pos cells [5] = assay: Response to estrogen on confluent fibroblast feeders; format: cell-based, human; details: on confluent fibroblast feeders in TGFβR2i, day eight
Procedure: To assess whether the response of ER^pos cells to estrogen was modulated by the presence of fibroblasts, second or third passage ER^pos cells, with or without omission of EGF in the previous passage, were plated at a density of 5600 cells/cm^2 on confluent fibroblast feeders in triplicate culture. The following day, the culture medium was switched to TGFβR2i with estrogen or vehicle. […] At day eight, the cultures were trypsinized and the total cell number was quantified. Whether a continuous lack of EGF influenced the response to estrogen was tested in a similar set-up, where EGF was omitted from the medium during the entire experimental period.

ER and PR = assay: Substitution of EGF with amphiregulin in the culture medium; format: cell-based; details: EGF substituted with amphiregulin

With `Cc1cccc(-c2[nH]ncc2-c2ccc3ncccc3n2)n1` [RepSox] the “induction of ER or PR” value [1] was “not as effective in inducing ER or PR as in combination with SB431542” and the expansion on passaging (CD166^high-derived cells) was “could not be expanded beyond fourth passage”.

In the case of `Fc1ccc(Cl)cc1-c1nc(Nc2ccncc2)c2nccnc2n1` [SD208], the “induction of K8 and ER” value (CD166^high cells; RepSox replaced by SD208) is reported as “insufficient to induce K8 and ER”.

With β-estradiol [estrogen] the “expression of PGR and GREB1” value (ER^pos cells [2]) was “increased expression of PGR and GREB1”, the epithelial colony size (luminal cells) was “larger epithelial colonied are formed” and the “estrogen receptor and progesterone receptor expression” value (luminal cells) was “down-regulation of its receptor and induction of the downstream progesterone receptor”. For the same molecule, the cell number (ER^pos cells [3]) was “significantly higher cell numbers”, the PR protein expression (ER^pos cells [4]) was “higher focal expression of PR protein” and the cell number (ER^pos cells [5]) was “significant increase in cell number”.

`NC(=O)c1ccc(-c2nc(-c3ccc4c(c3)OCO4)c(-c3ccccn3)[nH]2)cc1` [SB431542] was tested, and the “ER expression at the mRNA level” value (CD166^high cells; SB431542 alone in FAD2) was “capable of inducing increased expression of ER at the mRNA level” and the “induction of K8 and ER” value (CD166^high cells; twice the concentration of SB431542 instead of TGFβR2i) was “insufficient to induce K8 and ER”.

B1: amphiregulin: EGF-like compound substituted for EGF in the culture medium (protein, UniProt P15514 101-187, looked up)
Amphiregulin: SVRVEQVVKPPQNKTESENTSDKPKRKKKGGKNGKNRRNRKKKNPCNAEFQNFCIHGECKYIEHLEAVTCKCQQEYFGERCGEKSMK
modifications: Amphiregulin
notes: EGF-like compound substituted for EGF in the culture medium
In the case of B1, the “level of ER and PR” value (ER and PR) is reported as “a higher level of ER and PR is observed”.
